According to patent US8377975B2, “Oxadiazole derivatives for the treatment of diabetes” (Merck Patent Gesellschaft Mit Beschrankter Haftung, priority 2008, dated 2013):

Tests used:
Format in all cases: biochemical
SGK1 = target: T1, SGK1 (Homo sapiens, UniProt O00141); test: SGK1 enzyme inhibition (filter binding method); settings: Target SGK1
T1 sequence (O00141 1-431): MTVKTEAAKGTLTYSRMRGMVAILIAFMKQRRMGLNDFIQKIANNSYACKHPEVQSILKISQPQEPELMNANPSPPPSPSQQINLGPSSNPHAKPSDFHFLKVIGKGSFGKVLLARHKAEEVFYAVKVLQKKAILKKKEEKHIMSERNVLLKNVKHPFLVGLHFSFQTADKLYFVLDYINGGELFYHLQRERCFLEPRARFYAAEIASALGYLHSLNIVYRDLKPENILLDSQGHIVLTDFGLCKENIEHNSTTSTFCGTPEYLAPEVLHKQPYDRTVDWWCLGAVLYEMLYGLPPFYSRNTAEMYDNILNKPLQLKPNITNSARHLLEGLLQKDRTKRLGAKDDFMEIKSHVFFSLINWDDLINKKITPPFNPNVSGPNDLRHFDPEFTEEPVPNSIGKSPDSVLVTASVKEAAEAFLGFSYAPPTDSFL
Description: Other assays are known from the literature and could readily be performed by the person skilled in the art (see, for example, Dhanabal et al., Cancer Res. 59:189-197; Xin at al., J. Biol. Chem. 274:9116-9121; Sheu et al., Anticancer Res. 18:4435-4441; Ausprunk et al., Dev. Biol. 38:237-248; Gimbrone et al., J. Natl. Cancer Inst. 52:413-427; Nicosia at al., In Vitro 18:538- 549). The inhibition of SGK1 protein kinase can be determined in the filter binding method.

SGK3 = target: T2, SGK3 (Homo sapiens, UniProt Q96BR1); test: SGK3 enzyme inhibition; settings: Target SGK3
T2 sequence (Q96BR1 1-496): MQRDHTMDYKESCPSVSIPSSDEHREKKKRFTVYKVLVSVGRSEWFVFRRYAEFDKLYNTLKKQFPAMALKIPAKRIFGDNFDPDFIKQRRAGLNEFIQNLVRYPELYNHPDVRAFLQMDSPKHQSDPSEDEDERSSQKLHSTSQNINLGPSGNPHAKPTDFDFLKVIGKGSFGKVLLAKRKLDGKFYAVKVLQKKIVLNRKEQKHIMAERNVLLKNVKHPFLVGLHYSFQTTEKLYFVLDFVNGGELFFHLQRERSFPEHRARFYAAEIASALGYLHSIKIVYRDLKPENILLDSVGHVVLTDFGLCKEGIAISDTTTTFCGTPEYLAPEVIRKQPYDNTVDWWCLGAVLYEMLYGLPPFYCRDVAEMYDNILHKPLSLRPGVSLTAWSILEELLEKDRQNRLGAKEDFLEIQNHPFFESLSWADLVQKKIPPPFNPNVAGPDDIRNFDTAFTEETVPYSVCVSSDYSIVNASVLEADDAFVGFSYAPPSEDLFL

SGK2 = target: T3, SGK2 (Homo sapiens, UniProt Q9HBY8); test: SGK2 enzyme inhibition; settings: Target SGK2
T3 sequence (Q9HBY8 1-367): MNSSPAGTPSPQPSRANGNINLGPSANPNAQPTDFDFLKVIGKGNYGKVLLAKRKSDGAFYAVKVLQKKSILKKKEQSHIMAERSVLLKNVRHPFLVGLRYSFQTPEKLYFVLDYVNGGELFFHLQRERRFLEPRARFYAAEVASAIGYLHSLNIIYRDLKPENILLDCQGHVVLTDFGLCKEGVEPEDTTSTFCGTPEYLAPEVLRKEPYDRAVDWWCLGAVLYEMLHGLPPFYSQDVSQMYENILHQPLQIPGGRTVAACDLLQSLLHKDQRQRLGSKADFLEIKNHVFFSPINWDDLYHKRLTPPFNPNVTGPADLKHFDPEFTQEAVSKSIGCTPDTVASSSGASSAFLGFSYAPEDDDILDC

GSK3-beta = GSK3-beta (Homo sapiens, UniProt P49841); test: GSK3-beta enzyme inhibition; settings: Target GSK3-beta
Sequence of GSK3-beta (P49841 whole entry): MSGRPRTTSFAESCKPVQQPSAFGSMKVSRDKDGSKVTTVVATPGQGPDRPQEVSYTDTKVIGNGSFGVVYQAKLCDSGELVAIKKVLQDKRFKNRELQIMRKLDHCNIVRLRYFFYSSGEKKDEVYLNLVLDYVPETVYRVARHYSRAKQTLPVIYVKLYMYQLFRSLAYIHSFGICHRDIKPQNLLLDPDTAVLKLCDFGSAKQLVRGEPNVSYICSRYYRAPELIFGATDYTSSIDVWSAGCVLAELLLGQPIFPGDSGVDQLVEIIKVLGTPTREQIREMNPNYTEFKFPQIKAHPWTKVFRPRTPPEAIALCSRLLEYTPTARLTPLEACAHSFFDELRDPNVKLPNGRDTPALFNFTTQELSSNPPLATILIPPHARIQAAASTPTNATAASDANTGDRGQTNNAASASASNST

CCc1c(-c2nnc(NCc3cccc(F)c3)o2)ccc(O)c1C [Compound A1, 3-ethyl-4-[5-(3-fluorobenzylamino)-1,3,4-oxadiazol-2-yl]-2-methylphenol]
IC50 (SGK1): 1 to 100 nM
IC50 (SGK3): 1 to 100 nM
IC50 (SGK2): 1 to 100 nM
IC50 (GSK3-beta): 1 to 100 nM

Oc1ccc(-c2nnc(NCc3cccc(F)c3)o2)nc1 [Compound A5, 6-[5-(3-fluorobenzylamino)-1,3,4-oxadiazol-2-yl]pyridin-3-ol]
IC50 (SGK1): > 10000 nM

CCc1c(-c2nnc(NCc3cccc(OC)c3)o2)ccc(O)c1C [Compound A2]
IC50 (SGK1): 1 to 100 nM
IC50 (GSK3-beta): 100 to 10000 nM

CCc1c(-c2nnc(N)o2)ccc(O)c1C [Compound A4, 4-(5-amino-1,3,4-oxadiazol-2-yl)-3-ethyl-2-methylphenol]
IC50 (SGK1): 100 to 10000 nM

Oc1ccc(-c2nnc(NCc3cccc(F)c3)o2)c(F)c1F [Compound A6, 2,3-difluoro-4-[5-(3-fluorobenzylamino)-1,3,4-oxadiazol-2-yl]phenol]
IC50 (SGK1): > 10000 nM

CCc1c(-c2nnc(N[C@H](C)c3cccc(OC)c3)o2)ccc(O)c1C [Compound A3]
IC50 (SGK1): 1 to 100 nM
IC50 (GSK3-beta): 1 to 100 nM
